Results taken from patent US6538006B1, “Retroviral protease inhibitors” (Pharmacia Corporation, priority 1998, dated 2003).

Assays:
HIV protease = target: T1, HIV protease (Human immunodeficiency virus type 1 group M subtype B, UniProt P04585); assay: HIV protease enzyme assay (fluorogenic substrate); format: biochemical; settings: for IC50: HIV protease 12.3 nanomolar, substrate 80 μM, pH 6.4, read-out: Enzyme Inhibition (IC50); for inhibition at 10 µM: read-out: inhibition of the HIV enzyme
T1 construct: final enzyme concentration of 12.3 nanomolar, based on a molecular weight of 10,780
Procedure: The calculated IC50 (inhibiting concentration 50%, i.e., the concentrations at which the inhibitor compound reduces enzyme activity by 50%) values are shown in Table 1. The enzyme method is described below. The substrate is 2-aminobenzoyl-Ile-Nle-Phe(p-NO2)-Gln-ArgNH2. The positive control is MVT-101 (Miller, M. et al, Science, 246, 1149 (1989)]. The assay conditions are as follows:
Assay buffer: 20 mM sodium phosphate, pH 6.4
The above described substrate is dissolved in DMSO, then diluted 10 fold in assay buffer. Final substrate concentration in the assay is 80 μM.
HIV protease is diluted in the assay buffer to a final enzyme concentration of 12.3 nanomolar, based on a molecular weight of 10,780.
The final concentration of DMSO is 14% and the final concentration of glycerol is 18%. The test compound is dissolved in DMSO and diluted in DMSO to 10× the test concentration; 10 μL of the enzyme preparation is added, the materials mixed and then the mixture is incubated at ambient temperature for 15 minutes. The enzyme reaction is initiated by the addition of 40 μL of substrate. The increase in fluorescence is monitored at 4 time points (0, 8, 16 and 24 minutes) at ambient temperature. Each assay is carried out in duplicate wells.

HIV-1 = assay: CEM cell assay, HIV inhibition in acutely infected cells (MTT); format: cell-based; settings: Human immunodeficiency virus 1, CCRF-CEM, 168 h; CEM cells infected with HIV-1, 7 days, reduces cytopathicity by 50%; read-out: Antiviral Activity in Cell Culture (EC50)
Procedure: (§1) The effectiveness of the compounds tested in Part A was also determined in a CEM cell assay. The HIV inhibition assay method of acutely infected cells is an automated tetrazolium based calorimetric assay essentially that reported by Pauwles et al, J. Virol. Methods 20, 309-321 (1988). Assays were performed in 96-well tissue culture plates. CEM cells, a CD4^+ cell line, were grown in RPMI-1640 medium (Gibco) supplemented with a 10% fetal calf serum and were then treated with polybrene ([…]). An 80 μL volume of medium containing 1×10^4 cells was dispensed into each well of the tissue culture plate. To each well was added a 100 μL volume of test compound dissolved in tissue culture medium (or medium without test compound as a control) to achieve the desired final concentration and the cells were incubated at 37° C. for 1 hour. A frozen culture of HIV-1 was diluted in culture medium to a concentration of 5×10^4 TCID50 per mL (TCID50=the dose of virus that infects 50% of cells in tissue culture), and a 20 μL volume of the virus sample (containing 1000 TCID50 of virus) was added to wells containing test compound and to wells containing only medium (infected control cells). Several wells received culture medium without virus (uninfected control cells). Likewise, the intrinsic toxicity of the test compound was determined by adding medium without virus to several wells containing test compound. In summary, the tissue culture plates contained the following experiments:
(§2) In experiments 2 and 4, the final concentrations of test compounds were 1, 10, 100 and 500 μg/mL. Either azidothymidine (AZT) or dideoxyinosine (ddI) was included as a positive drug control. […] DMSO was added to all control wells at an appropriate concentration.
(§3) Following the addition of virus, cells were incubated at 37° C. in a humidified, 5% CO2 atmosphere for 7 days. Test compounds could be added on days 0, 2 and 5 if desired. On day 7, post-infection, the cells in each well were resuspended and a 100 μL sample of each cell suspension was removed for assay. A 20 μL volume of a 5 mg/mL solution of 3-(4,5-dimethylthiazol-2-yl)-2,5-diphenyltetrazolium bromide (MTT) was added to each 100 μL cell suspension, and the cells were incubated for 4 hours at […] in a 5% CO2 environment. […] To each sample was added 100 μL of 10% sodium dodecylsulfate in 0.01 N HCl to lyse the cells, and samples were incubated overnight. The absorbance at 590 nm was determined for each sample using a Molecular Devices microplate reader. Absorbance values for each set of wells is compared to assess viral control infection, uninfected control cell response as well as test compound by cytotoxicity and antiviral efficacy.
(§4) The calculated EC50 (effective concentration 50%, i.e., the concentration at which the inhibitor compound reduces cytopathicity by 50%) and TD50 (toxic dose 50%, i.e., the concentration at which the inhibitor compound reduces cellular viability by 50%) values for these compounds are also shown in Table 1.

CEM cells = assay: CEM cell assay, intrinsic toxicity of test compound (MTT, no virus); format: cell-based; settings: CEM cells without virus, reduces cellular viability by 50%
Procedure: as §1, §2, §3, §4

C[C@H](CS(C)(=O)=O)C(=O)N[C@@H](Cc1ccccc1)[C@H](O)CN1C[C@H]2CCCC[C@H]2C[C@H]1C(=O)NC(C)(C)C
IC50 (HIV protease): 7 nM | EC50 (HIV-1): 42 nM | Cell Toxicity (TD50) (CEM cells): 58,000 nM

COc1ccc(COC(=O)NC[C@@H](C)C(=O)N[C@@H](Cc2ccccc2)[C@H](O)CN2C[C@H]3CCCC[C@H]3C[C@H]2C(=O)NC(C)(C)C)cc1
IC50 (HIV protease): 2 nM | EC50 (HIV-1): 52 nM | Cell Toxicity (TD50) (CEM cells): 2,000 nM

COc1ccc(COC(=O)NC[C@@H](C)C(=O)N[C@@H](Cc2ccccc2)[C@H](O)CN2C[C@H]3CCCC[C@H]3C[C@H]2C(=O)NC(C)(C)C)cc1 (relative stereo) [Example 4, Carbamic Acid, [3-[[3-[3-[[(1,1-Dimethylethyl)-amino]carbonyl]octahydro-2(1H)-isoquinolinyl]-2-hydroxy-1-(phenylmethyl)propyl]amino]-2-methyl-3-oxopropyl]-, (4-Methoxyphenyl)methyl Ester, [3S-[2(1R*,(S*),2S*),3α,4aβ,8aβ]]-]
inhibition at 10 µM (HIV protease): 3 to 100%

C[C@@H](C(=O)N[C@@H](Cc1ccccc1)[C@H](O)CN1C[C@H]2CCCC[C@H]2C[C@H]1C(=O)NC(C)(C)C)C(C)(C)C(N)=O (relative stereo) [Example 12, Butanamide, 4-[[3-[3-[[(1,1-Dimethylethyl)-amino]carbonyl]octahydro-2(1H)-isoquinolinyl]-2-hydroxy-1-(phenylmethyl)propyl]amino]-2,2,3-trimethyl-4-oxo-, [3S-[2[1R*(S*),2S*],3α,4aβ,8aβ]]-]
inhibition at 10 µM (HIV protease): 3 to 100%

CC(C)(C)NC(=O)[C@@H]1C[C@@H]2CCCC[C@@H]2CN1C[C@@H](O)[C@H](Cc1ccccc1)NC(=O)C[C@H](NC(=O)c1ccc2ccccc2n1)C(N)=O
IC50 (HIV protease): 9 nM | EC50 (HIV-1): 37 nM | Cell Toxicity (TD50) (CEM cells): 5,000 nM

C[C@H](CS(C)(=O)=O)C(=O)N[C@@H](Cc1ccccc1)[C@H](O)CN1C[C@H]2CCCC[C@H]2C[C@H]1C(=O)NC(C)(C)C (relative stereo) [Example 6, 3-Isoquinolinecarboxamide, N-(1,1-Dimethylethyl)decahydro-2-[2-hydroxy-3-[[2-methyl-3-(methylsulfonyl)-1-oxopropyl]amino]-4-phenylbutyl]-, [3S-[2(2S*,3S*(R*)],3α,4aβ,8aβ]]-]
inhibition at 10 µM (HIV protease): 3 to 100%

C[C@@H](C(=O)N[C@@H](Cc1ccccc1)[C@H](O)CN1C[C@H]2CCCC[C@H]2C[C@H]1C(=O)NC(C)(C)C)C(C)(C)C(=O)O
IC50 (HIV protease): 23 nM | EC50 (HIV-1): 184 nM | Cell Toxicity (TD50) (CEM cells): 50,000 nM

C[C@@H](C(=O)N[C@@H](Cc1ccccc1)[C@H](O)CN1C[C@H]2CCCC[C@H]2C[C@H]1C(=O)NC(C)(C)C)C(C)(C)C(=O)O (relative stereo) [Example 12C, butanoic acid, 4-[[3-[3-[[(1,1-dimethylethyl)amino]carbonyl]octahydro-2(1H)-isoquinolinyl]-2-hydroxy-1-(phenylmethyl)propyl]amino]-2,2,3-trimethyl-4-oxo-, [3S-[2[1R*(S*),2S*],3α,4aβ,8aβ]]-]
inhibition at 10 µM (HIV protease): 3 to 100%

C[C@@H](C(=O)N[C@@H](Cc1ccccc1)[C@H](O)CN1C[C@H]2CCCC[C@H]2C[C@H]1C(=O)NC(C)(C)C)C(C)(C)CN
IC50 (HIV protease): 9 nM | EC50 (HIV-1): 98 nM | Cell Toxicity (TD50) (CEM cells): 59,000 nM

CC(C)(C)NC(=O)[C@@H]1C[C@@H]2CCCC[C@@H]2CN1C[C@@H](O)[C@H](Cc1ccccc1)NC(=O)C[C@H](NC(=O)c1ccc2ccccc2n1)C(N)=O (relative stereo) [Example 10, Butanediamide, N^4-[3-[3-[[((1,1-Dimethylethyl)-amino]carbonyl]octahydro-2(1H)-isoquinolinyl]-2-hydroxy-1-(phenylmethyl)propyl]-2-[(2-quinolinylcarbonyl)amino]-, [3S[2[1R*(R*),2S*],3α,4aβ,8aβ]]-]
inhibition at 10 µM (HIV protease): 3 to 100%
